Reference: patent publication US8026243B2, “[4,5′]Bipyrimidinyl-6,4′-diamine derivatives as protein kinase inhibitors” (Novartis AG, priority 2006, dated 2011)

Each compound was assayed against T1, Ba/F3-TEL-FGFR3 cells (Homo sapiens, UniProt P22607) (assay: FGFR3 cellular assay: proliferation of transformed Ba/F3-TEL-FGFR3 cells (AlamarBlue)). Conditions: 48 hours incubation, class symbols.
T1 construct: fused on or other part: The N-terminal oligomerising part of TEL (ETV6) is fused before the intracellular kinase part of FGFR3; P41212 (Transcription factor ETV6)
T1 sequence (P22607 whole entry, change not shown, the tested form may be a part): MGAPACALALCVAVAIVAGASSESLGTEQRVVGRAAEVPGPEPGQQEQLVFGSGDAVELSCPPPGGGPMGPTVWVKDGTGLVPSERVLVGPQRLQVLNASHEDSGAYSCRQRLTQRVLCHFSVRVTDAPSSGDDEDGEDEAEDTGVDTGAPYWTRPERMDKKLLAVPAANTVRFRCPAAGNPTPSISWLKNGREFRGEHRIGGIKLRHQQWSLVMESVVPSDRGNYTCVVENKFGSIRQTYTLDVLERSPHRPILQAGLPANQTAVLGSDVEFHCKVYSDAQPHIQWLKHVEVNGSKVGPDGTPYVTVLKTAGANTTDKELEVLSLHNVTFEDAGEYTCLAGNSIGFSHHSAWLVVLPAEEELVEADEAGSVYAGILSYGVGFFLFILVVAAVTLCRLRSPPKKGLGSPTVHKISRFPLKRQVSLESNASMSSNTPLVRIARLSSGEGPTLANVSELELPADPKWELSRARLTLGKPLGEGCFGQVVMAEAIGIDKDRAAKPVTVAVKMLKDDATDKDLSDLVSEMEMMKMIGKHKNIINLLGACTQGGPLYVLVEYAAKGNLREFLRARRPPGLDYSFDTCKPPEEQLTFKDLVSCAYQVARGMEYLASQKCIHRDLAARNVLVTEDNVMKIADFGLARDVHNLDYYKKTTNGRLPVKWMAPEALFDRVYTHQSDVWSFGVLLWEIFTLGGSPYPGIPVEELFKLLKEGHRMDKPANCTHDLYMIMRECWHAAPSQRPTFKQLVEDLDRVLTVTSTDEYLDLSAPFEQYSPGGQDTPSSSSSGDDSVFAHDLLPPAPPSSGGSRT
Type: cell-based
Experimental: Compounds of the invention are tested for their ability to inhibit transformed Ba/F3-TEL-FGFR3 cells proliferation, which is dependent on FGFR3 cellular kinase activity. Ba/F3-TEL-FGFR3 are cultured up to 800,000 cells/mL in suspension, with RPMI 1640 supplemented with 10% fetal bovine serum as the culture medium. Cells are dispensed into 384-well format plate at 5000 cell/well in […], culture medium. Compounds of the invention are dissolved and diluted in dimethylsulfoxide (DMSO). Twelve points 1:3 serial dilutions are made into DMSO to create concentrations gradient ranging typically from 10 mM to 0.05 μM. Cells are added with 50 nL of diluted compounds and incubated for 48 hours in cell culture incubator. AlamarBlue® (TREK Diagnostic Systems), which can be used to monitor the reducing environment created by proliferating cells, are added to cells at final concentration of 10%. After additional four hours of incubation in a 37° C. cell culture incubator, fluorescence signals from reduced AlamarBlue® (Excitation at 530 nm, Emission at 580 nm) are quantified on Analyst GT (Molecular Devices Corp.). IC50 values are calculated by linear regression analysis of the percentage inhibition of each compound at 12 concentrations.

GI50 | SMILES
< 100 nM | COc1cc(OC)c(F)c(Nc2ncncc2-c2cc(Nc3ccc(CN4CCN(C(C)=O)CC4)cn3)ncn2)c1F [Compound 66, 1-(4-{6-[4′-(2,6-Difluoro-3,5-dimethoxy-phenylamino)-[4,5′]bipyrimidinyl-6-ylamino]-pyridin-3-ylmethyl}-piperazin-1-yl)-ethanone]
< 100 nM | COc1cc(OC)c(Cl)c(Nc2ncncc2-c2cc(Nc3ccc(CN4CCOCC4)cn3)ncn2)c1Cl [Compound 4, N4′-(2,6-Dichloro-3,5-dimethoxy-phenyl)-N6-(5-morpholin-4-ylmethyl-pyridin-2-yl)-[4,5′]bipyrimidinyl-6,4′-diamine]
100 to 250 nM | COc1cc(Nc2ncncc2-c2cc(Nc3cc(CN4CCN(C)CC4)ccn3)ncn2)c(Cl)c(OC)c1 [Compound 39, N4′-(2-Chloro-3,5-dimethoxy-phenyl)-N6-[4-(4-methyl-piperazin-1-ylmethyl)-pyridin-2-yl]-[4,5′]bipyrimidinyl-6,4′-diamine]
< 100 nM | COc1cc(OC)c(Cl)c(Nc2ncncc2-c2cc(Nc3ccc(CN4CCN(CCO)CC4)cn3)ncn2)c1C [Compound 76, 2-(4-{6-[4′-(2-Chloro-3,5-dimethoxy-6-methyl-phenylamino)-[4,5′]bipyrimidinyl-6-ylamino]-pyridin-3-ylmethyl}-piperazin-1-yl)-ethanol]
< 100 nM | COc1cc(OC)c(Cl)c(Nc2ncncc2-c2cc(Nc3ccc(CN4CCN(CCO)CC4)cn3)ncn2)c1F [Compound 73, 2-(4-{6-[4′-(2-Chloro-6-fluoro-3,5-dimethoxy-phenylamino)-[4,5′]bipyrimidinyl-6-ylamino]-pyridin-3-ylmethyl}-piperazin-1-yl)-ethanol]
< 100 nM | COc1cc(OC)c(F)c(Nc2ncncc2-c2cc(Nc3cc(CN4CCOCC4)ccn3)ncn2)c1F [Compound 65, N4′-(2,6-Difluoro-3,5-dimethoxy-phenyl)-N6-(4-morpholin-4-ylmethyl-pyridin-2-yl)-[4,5′]bipyrimidinyl-6,4′-diamine]
100 to 250 nM | CCN1CCN(Cc2ccc(Nc3cc(-c4cncnc4Nc4cc(OC)cc(OC)c4Cl)ncn3)nc2)CC1 [Compound 38, N4′-(2-Chloro-3,5-dimethoxy-phenyl)-N6-[5-(4-ethyl-piperazin-1-ylmethyl)-pyridin-2-yl]-[4,5′]bipyrimidinyl-6,4′-diamine]
< 100 nM | COc1cc(OC)c(F)c(Nc2ncncc2-c2cc(Nc3ccc(CCN4CCOCC4)cn3)ncn2)c1F [Compound 85, N4′-(2,6-Difluoro-3,5-dimethoxy-phenyl)-N6-[5-(2-morpholin-4-yl-ethyl)-pyridin-2-yl]-[4,5′]bipyrimidinyl-6,4′-diamine]
100 to 250 nM | COc1cc(Nc2ncncc2-c2cc(Nc3ccc(CN4CCOCC4)cn3)ncn2)c(Cl)c(OC)c1 [Compound 37, N4′-(2-Chloro-3,5-dimethoxy-phenyl)-N6-(5-morpholin-4-ylmethyl-pyridin-2-yl)-[4,5′]bipyrimidinyl-6,4′-diamine]
< 100 nM | COc1cc(OC)c(Cl)c(Nc2nccnc2-c2cc(Nc3ccc(C(C)O)cn3)ncn2)c1Cl (stereo not shown) [Compound 102, {6-[3-(2,6-Dichloro-3,5-dimethoxy-phenylamino)-pyrazin-2-yl]-pyrimidin-4-yl}-(5-[1-hydroxyethyl]-pyridin-2-yl)-amine]
< 100 nM | COc1cc(OC)c(F)c(Nc2ncncc2-c2cc(Nc3ccc(C(C)O)cn3)ncn2)c1F (stereo not shown) [Compound 80, 1-{6-[4′-(2,6-Difluoro-3,5-dimethoxy-phenylamino)-[4,5′]bipyrimidinyl-6-ylamino]-pyridin-3-yl}-ethanol]
< 100 nM | COc1cc(Nc2ncncc2-c2cc(Nc3ccc(CN4CCN(CCO)CC4)cn3)ncn2)c(F)c(OC)c1 [Compound 70, 2-(4-{6-[4′-(2-Fluoro-3,5-dimethoxy-phenylamino)-[4,5′]bipyrimidinyl-6-ylamino]-pyridin-3-ylmethyl}-piperazin-1-yl)-ethanol]
100 to 250 nM | COc1cc(OC)c(Cl)c(Nc2ncncc2-c2cc(NCCCN3CCOCC3)ncn2)c1Cl [Compound 12, N4′-(2,6-Dichloro-3,5-dimethoxy-phenyl)-N6-(3-morpholin-4-yl-propyl)-[4,5′]bipyrimidinyl-6,4′-diamine]
